According to patent US8557512B2, “Method of screening activators and/or inhibitors of insulin receptor substrate 2” (HMI Medical Innovations, LLC, priority 2003, dated 2013):
Where no end group is shown, it is not given here.

Key:
IRS2 mice = assay: Restoration of normal glucose homeostasis in IRS2 mice; assay type: in vivo; details: administration by injection
Source text: (§1) Furthermore, GLP-1 also stimulates β-cell proliferation and neogenesis, and reduces or eliminates apoptosis of β-cells.

IRS2 [1] = assay: IRS2 levels in mouse islets; assay type: cell-based
Source text: (§2) Drugs that increase IRS2 expression in mice stimulate beta cell function. An example of such a drug is exendin-4. Exendin-4 is a homolog of the natural peptide produced in the intestine called glucagon-like peptide-1. GLP1/Ex4 upregulates IRS2 levels in β-cells because they stimulate the production of cAMP. […] Other drugs that increase cAMP levels in these and other cells also increase IRS2 levels and stimulate its signaling pathways. Many of the positive actions of GLPL1/Ex4 on mouse and human cells are prevented by blocking the IRS2 gene from expressing its IRS2 protein product.

IRS2 [2] = details: β-cell lines; Jhala et al., Genes Dev. 17:1575-1580 (2003); cited from earlier work
IRS2 [3] = assay: IRS2 levels in human islets; assay type: cell-based
Source text: as §2

IRS2 [4] = assay: IRS2 upregulation in beta cells and other cells; assay type: cell-based
Source text: as §1

| Substance | restore normal glucose homeostasis (IRS2 mice) | levels of IRS2 (IRS2 [1]) | IRS2 expression (IRS2 [2]) | levels of IRS2 (IRS2 [3]) | IRS2 upregulation (IRS2 [4]) |
| --- | --- | --- | --- | --- | --- |
| exendin-4 | unsuccessful | upregulate the levels of IRS2 | strongly increases IRS2 expression | upregulate the levels of IRS2 | – |
| glucagon-like peptide-1 (HAEGTFTSDVSSYLEGQAAKEFIAWLVKGR; ends and bridges not checked; UniProt P01275 98-127, looked up) [GLP-1, natural peptide produced in the intestine] | – | upregulate the levels of IRS2 | strongly increases IRS2 expression | upregulate the levels of IRS2 | strongly up regulates IRS2 |
